This is an account of results in publication PMC10478957 (Biochemistry, 2023).

For test [1], the target named is T1, BtNosP (Burkholderia thailandensis, UniProt Q2T7C0).
T1 sequence (Q2T7C0 1-386): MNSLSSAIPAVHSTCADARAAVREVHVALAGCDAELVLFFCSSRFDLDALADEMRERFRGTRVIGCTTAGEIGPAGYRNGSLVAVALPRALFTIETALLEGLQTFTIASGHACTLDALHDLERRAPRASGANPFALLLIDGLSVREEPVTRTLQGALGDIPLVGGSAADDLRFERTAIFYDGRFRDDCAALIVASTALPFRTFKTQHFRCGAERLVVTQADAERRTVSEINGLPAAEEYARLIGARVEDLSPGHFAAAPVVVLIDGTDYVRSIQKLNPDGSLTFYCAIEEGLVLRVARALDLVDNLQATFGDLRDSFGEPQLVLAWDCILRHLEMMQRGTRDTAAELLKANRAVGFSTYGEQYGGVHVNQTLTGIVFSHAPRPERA
In kind it is binding.

Test [2] has as its target BtNosP (Burkholderia thailandensis, UniProt Q2T7C0). The test can be described thus: biochemical. In kind it is binding.

On to `[N]=O` [nitric oxide], for which the “UV-vis spectroscopy of Fe(II)-NO complex; CO/dithionite trap NO dissociation rat” value at BtNosP [1] was “(1.73 ± 0.6) × 10^−4 s^−1”.

On to `C=CC1=C(C)C2=Cc3c(C=C)c(C)c4[n]3[Fe]([Cl])[n]3c(c(C)c(CCC(=O)O)c3=CC3=NC(=C4)C(C)=C3CCC(=O)O)=CC1=N2` [hemin], for which, on BtNosP [2], binding was put at a Kd of 530 ± 120 nM.
